5 compounds from patent US9890166B2, “Imidazopyrrolidine derivatives and their use in the treatment of disease” (NOVARTIS AG, priority 2013, dated 2018) can be followed below.

Bounds are passed on as bounds.

The test system of test [1] is MV-4-11 cells. The test is described as follows: Cell growth inhibition assay (CellTiter-Glo), MV-4-11.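 As to all read-outs here: cellular ATP luminescence after 4 days, 3-fold dilution series from 10 µM top dose, vehicle (0.1% DMSO) set to 100%, cell-free medium set to −100%, day 0 corrected.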 The following applies: for GI50: Homo sapiens, MV4-11, read-out: MV-4-11 GI50; for MV-4-11 TGI: MV-4-11 cells, total growth inhibition, CellTiter-Glo. (Cellular ATP, detected with luciferase, serves as a proxy for viable cell number.)
Test [2] deals with BRD3 (His-Brd3(20-477)) (Homo sapiens (Human), UniProt Q15059). The test is described as follows: TR-FRET in-vitro binding assay for BRD3. Conditions: single determination or n ≧ 2 independent determinations, read-out: Biochemical IC50 BRD3. The method, boiled down:
(§1)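 In this TR-FRET format, each compound was tested as an 8-point dilution series, single point per concentration, dispensed from 90% DMSO solution. Incubation lasted 35 minutes at 30° C.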

Test [3] has as its target CREBBP bromodomain (His-CREBBP(1081-1197)) (Homo sapiens (Human), UniProt Q92793). In words: AlphaScreen in-vitro binding assay for CREBBP. The following applies: single determination or n ≧ 2 independent determinations, read-out: Biochemical IC50 CREBBP. The method, boiled down: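 Detection used nickel-chelate acceptor plus streptavidin donor AlphaScreen beads, 1 h room temperature. Percent inhibition fitted by non-linear regression to IC50.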
Background: Bead proximity is the source of the signal in Alpha formats.

Test [4] has as its system K-562 cells. The test is described as follows: Cell growth inhibition assay (CellTiter-Glo), K-562.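 As to all read-outs here: cellular ATP measured by luminescence after 4 days of exposure, 3-fold dilution series from 10 µM, DMSO vehicle-treated cells define 100%, cell-free medium wells −100%.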 Conditions: for GI50: Homo sapiens, K562, read-out: K-562 GI50; for K-562 TGI: K-562 cells, total growth inhibition, CellTiter-Glo.
For test [5], the target named is BRD4 (His-Brd4(44-477)) (Homo sapiens (Human), UniProt O60885). The test is described as follows: TR-FRET in-vitro binding assay for BRD4. The following applies: single determination or n ≧ 2 independent determinations, read-out: Biochemical IC50 BRD4. In a few lines: as §1
The target of test [6] is BRD2 (His-Brd2(60-472)) (Homo sapiens (Human), UniProt P25440). The test is described as follows: TR-FRET in-vitro binding assay for BRD2. Conditions: single determination or n ≧ 2 independent determinations, read-out: Biochemical IC50 BRD2. In a few lines: as §1
On the technique in general: In TR-FRET formats the signal depends on donor and acceptor labels being close together.

Test [7] concerns THP-1 cells. In words: Cell growth inhibition assay (CellTiter-Glo), THP-1.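 As to all read-outs here: viability read as cellular ATP luminescence after 4 days, 3-fold dilution series from 10 µM, DMSO vehicle-treated cells taken as 100%, cell-free medium wells as −100%.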 Conditions: for GI50: Homo sapiens, THP-1, read-out: THP-1 GI50; for THP-1 TGI: THP-1 cells, total growth inhibition, CellTiter-Glo.
Test [8] deals with nuclear BRD4-NUT foci in HCC2494 NUT midline carcinoma cells (Homo sapiens, UniProt O60885). The test is described as follows: cell-based.

BRD3 (His-Brd3(20-477)), sequence (Q15059 20-477): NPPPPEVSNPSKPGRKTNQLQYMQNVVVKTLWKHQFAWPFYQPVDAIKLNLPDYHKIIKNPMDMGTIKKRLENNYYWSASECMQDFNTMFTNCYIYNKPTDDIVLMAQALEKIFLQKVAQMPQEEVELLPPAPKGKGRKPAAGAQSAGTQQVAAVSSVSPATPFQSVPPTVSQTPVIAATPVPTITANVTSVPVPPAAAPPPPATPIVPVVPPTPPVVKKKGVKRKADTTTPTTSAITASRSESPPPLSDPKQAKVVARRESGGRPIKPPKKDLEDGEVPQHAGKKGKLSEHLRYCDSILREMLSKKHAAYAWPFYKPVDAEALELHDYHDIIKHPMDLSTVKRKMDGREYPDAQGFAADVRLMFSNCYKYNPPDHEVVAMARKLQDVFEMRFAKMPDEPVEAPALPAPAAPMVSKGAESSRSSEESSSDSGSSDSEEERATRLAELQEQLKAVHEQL
CREBBP bromodomain (His-CREBBP(1081-1197)), sequence (Q92793 1081-1197): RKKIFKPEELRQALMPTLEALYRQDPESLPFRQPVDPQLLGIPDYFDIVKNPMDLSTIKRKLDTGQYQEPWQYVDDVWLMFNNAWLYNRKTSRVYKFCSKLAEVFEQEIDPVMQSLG
BRD2 (His-Brd2(60-472)), sequence (P25440 60-472): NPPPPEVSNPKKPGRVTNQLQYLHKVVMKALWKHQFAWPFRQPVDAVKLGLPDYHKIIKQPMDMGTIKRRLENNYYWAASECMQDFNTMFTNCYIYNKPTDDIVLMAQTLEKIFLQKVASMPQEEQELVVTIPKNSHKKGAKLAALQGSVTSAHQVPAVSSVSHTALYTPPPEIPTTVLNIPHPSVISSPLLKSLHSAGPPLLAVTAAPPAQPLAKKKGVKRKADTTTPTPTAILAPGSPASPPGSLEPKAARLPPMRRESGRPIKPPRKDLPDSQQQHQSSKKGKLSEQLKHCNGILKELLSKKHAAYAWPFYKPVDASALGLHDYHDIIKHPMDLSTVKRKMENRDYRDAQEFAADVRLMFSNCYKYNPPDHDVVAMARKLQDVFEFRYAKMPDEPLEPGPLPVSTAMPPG

Turning to `Cc1cc(N2C(=O)c3nc(C)n(C(C)C)c3C2c2ccc(Cl)cc2)cc2c1nnn2C` (racemic) [Example 2, 6-(4-chlorophenyl)-5-(3,7-dimethyl-3H-benzo[d][1,2,3]triazol-5-yl)-1-isopropyl-2-methyl-5,6-dihydropyrrolo[3,4-d]imidazol-4(1H)-one], the figures for the GI50 in test [1], in test [4] and in test [7] were 13.8 nM, 95.9 nM and 23.4 nM, respectively. The “MV-4-11 TGI” value in test [1] was found to be 0.02865 µM. Further, the IC50 – broadly, the concentration needed to halve the response being measured – is 15 nM in test [2]; 8.6 µM in test [3]; 20 nM in test [5]; 33 nM in test [6]; 14.5 nM in test [8]. For the same compound, the “K-562 TGI” value in test [4] was >10 µM. Further, the “THP-1 TGI” value in test [7] is 0.04095 µM.

Take `Cc1cc(N2C(=O)c3c(nc(C)n3C(C)C)C2c2ccc(Cl)cc2)cc2c1nnn2C` (racemic) [Example 3, 6-(4-chlorophenyl)-5-(3,7-dimethyl-3H-benzo[d][1,2,3]triazol-5-yl)-3-isopropyl-2-methyl-5,6-dihydropyrrolo[3,4-d]imidazol-4(3H)-one]: the results for the GI50 in test [1], in test [4] and in test [7] were 8.19 nM, 55.1 nM and 13.7 nM, respectively. For the same compound, in test [1], the “MV-4-11 TGI” value worked out at 0.01445 µM. Besides, the IC50 amounted to 12 nM in test [2]; 2.6 µM in test [3]; 15 nM in test [5]; 27 nM in test [6]; 12.3 nM in test [8]. Moreover, in test [4], the “K-562 TGI” value was >10 µM. The “THP-1 TGI” value in test [7] was found to be 0.02755 µM.

Consider `Cc1cc(N2C(=O)c3nc(C4CC4)n(C(C)C)c3C2c2ccc(Cl)cc2)cn2c(C)nnc12` (racemic) [Example 13, 6-(4-chlorophenyl)-2-cyclopropyl-5-(3,8-dimethyl-[1,2,4]triazolo[4,3-a]pyridin-6-yl)-1-isopropyl-5,6-dihydropyrrolo[3,4-d]imidazol-4(1H)-one], for which the results for the GI50 in test [1], in test [4] and in test [7] were 11.3 nM, 114 nM and 26.1 nM, respectively. In addition, the “MV-4-11 TGI” value in test [1] came to 0.02715 µM. Also, the IC50 in test [2] was 39 nM; in test [3] it was 4.5 µM; in test [5] it was 37 nM; in test [6], 41 nM; in test [8], 16.1 nM. For the same compound, the “K-562 TGI” value in test [4] is >10 µM. The “THP-1 TGI” value in test [7] was found to be 0.05945 µM.

For `Cc1cc(N2C(=O)c3nc(C)n(C(C)C)c3C2c2ccc(Cl)cc2)nn2c(C)nnc12` (racemic) [Example 18, 6-(4-chlorophenyl)-5-(3,8-dimethyl-[1,2,4]triazolo[4,3-b]pyridazin-6-yl)-1-isopropyl-2-methyl-5,6-dihydropyrrolo[3,4-d]imidazol-4(1H)-one], the GI50 – broadly, the concentration giving 50% growth inhibition – in test [1] is 11.2 nM; in test [4], 91 nM; in test [7] it was 15.9 nM. Moreover, the “MV-4-11 TGI” value in test [1] worked out at 0.02695 µM. Besides, the IC50 in test [2] came out at 11 nM; in test [3], 27.7 µM; in test [5] it was 13 nM; in test [6] it was 19 nM; in test [8] it was 7.55 nM. Further, the “K-562 TGI” value in test [4] was >10 µM. Besides, the “THP-1 TGI” value in test [7] was determined as 0.0356 µM.

With `COc1ccc(-c2nc3c([nH]2)C(c2ccc(Cl)cc2)N(c2cc(C)c(=O)n(C)c2)C3=O)cn1` (stereo not shown) [Example 4, 6-(4-chlorophenyl)-5-(1,5-dimethyl-6-oxo-1,6-dihydropyridin-3-yl)-2-(6-methoxypyridin-3-yl)-5,6-dihydropyrrolo[3,4-d]imidazol-4(1H)-one], the GI50 in test [1] was 69.5 nM; in test [4], 254 nM; in test [7], 110 nM. Also, the “MV-4-11 TGI” value in test [1] was determined as 0.116 µM. For the same compound, the IC50 in test [2] was 68 nM; in test [3], 1.4 µM; in test [5] it was 64 nM; in test [6], 68 nM; in test [8], 74.7 nM. Also, the “K-562 TGI” value in test [4] was >10 µM. Moreover, the “THP-1 TGI” value in test [7] turned out to be 0.207 µM.
